Laboratory results as given in patent US20240382509A1, “Cannabinoids C- and O-glycosides possessing anti-proliferative and anti-metastatic properties and process for preparation thereof” (Council of Scientific and Industrial Research, priority 2021, published 2024).
Like-named read-outs stand apart in the source and are kept apart here.

Legend:
[1] = system: lung adenocarcinoma cells (A549); assay: MTT cell viability assay, A549; format: cell-based
Experimental: (§1) Cell viability assay: The cell viability was determined by the standard MTT assay method. Briefly, Panc-1, HCT-116, A549, PC3, MIAPaca-2, HT-29, MDA-MB-231, MCF7 cells, and fR2cells were seeded in 96 well tissue culture plates (Nunc) at a density of 4×10^3 cells per well and treated with varying concentrations of the test compounds in triplicates. DMSO was taken as a vehicle, and its final concentration was maintained at 0.2% in the culture medium. Doxorubicin was employed as a positive control. After 44 h of incubation, MTT dye solution was added into the medium, and cells were incubated for another 4 h at 37° C. in 5% CO2. The amount of colored formazan derivatives formed was measured by taking optical density (OD) using a microplate reader (TECAN, Infinite M200 Pro) at 570 nm, and the percentage of cell viability was calculated. The IC50 values were calculated using GraphPad Prism software (Version 5.0).

[2] = system: human colorectal adenocarcinoma cell line (HT-29); assay: MTT cell viability assay, HT-29; format: cell-based; details: for IC50: human colorectal adenocarcinoma cell line
Experimental: as §1

Panc-1 cells [3] = assay: MTT cell viability assay, Panc-1; format: cell-based; details: for IC50: pancreatic cancer cells; for fold activity compared to parent compound, pancreatic cancer cells: ratio of IC50 parent vs derivative, Panc-1
Experimental: as §1

MIAPaCa-2 cells [4] = assay: MTT cell viability assay, MIAPaCa-2; format: cell-based, human
Experimental: as §1

MCF-7 cells = assay: MTT cell viability assay, MCF-7; format: cell-based; details: breast cancer cell of epithelial origin
Experimental: as §1

PC3 cells = assay: MTT cell viability assay, PC3; format: cell-based
Experimental: as §1

HCT-116 cells = assay: MTT cell viability assay, HCT-116; format: cell-based; details: for IC50: colorectal adenocarcinoma cells
Experimental: as §1

Panc-1 cells [5] = assay: Colony formation assay; format: cell-based; details: Panc-1, 1000 cells/well, 5 days, compared to corresponding parent compounds
Experimental: Colony formation assay. […] cells were seeded onto 6 well plates with a seeding density of 1000 cells/well. The cells after attachment were treated with 2 (2a, 2b), 3 (3a, 3b), 4 (4a, 4b) along with DMSO as a vehicle control and incubated for 5-6 days. After incubation, the plates were washed with ice-cold PBS, and the cells were fixed with methanol for 5 min. After fixing. the cells were stained with 0.2% crystal violet stain for 1 h. The cells were then washed with distilled water to remove the stain and were observed under an inverted microscope at 20× magnification.
The anti-proliferative properties of glycosidic derivatives were further analysed by colony formation assay in pancreatic cancer cells. The novel C-glycosidic derivatives of compounds 1, 2, 3 and 4 viz 1b, 2b, 3b & 4b display anti-proliferative property (FIG. 2). Panc-1cells were seeded onto 6 well plates at seeding density 1000 cells/well and treated with indicated concentration of 1b, 2b, 3b and 4b derivatives along with their parent compounds and DMSO as vehicle for 5 days. Upon termination the cells were stained with crystal violet and images of field were photographed.

MIAPaCa-2 cells [6] = assay: Cell scatter assay; format: cell-based, human; details: MIAPaCa-2, 1, 2, 3 μM, 36 h, compared to vehicle and parent molecule
Experimental: Cell scatter assay MIAPaCa-2 cells were seeded onto a 12 well plate at a seeding density of 500 cells/well and kept for 4-5 days, and there was the formation of scatter colonies since the cell line itself is a metastatic cell line. Accordingly, they were treated with 1 μM, 2 μM & 3 μM of compound 2, 2a, 2b, 3, 3a, 4, 4a & 4b for 36 h, and upon termination, they were washed with PBS and observed under an inverted microscope at 20× magnification (FIG. 3).

[7] = system: 4T1 mouse mammary carcinoma cells; assay: 4T1 allograft breast cancer model, anti-tumor and anti-metastatic efficacy; format: in vivo; details: tumor lysate immunoblot, 30 mg/kg
Experimental: In vivo anti-metastatic and anti-tumor efficacy studies. 4T1 mouse mammary carcinoma cells is a highly aggressive cell line that forms tumors when grafted in Balb/c mice. […] All the in vivo experimental protocols were approved by the Institutional Animal Ethics Committee, CPCSEA, of the Indian Institute of Integrative Medicine, Jammu. The animals were maintained at 22° C. with a 12 h light-dark cycle and free access to feed and water inside the institutional animal house. Proper care was taken to maintain them in a healthy condition and to avoid any risk of possible pathogenic contaminations. For subcutaneous implantation of 4T1 cells, the Balb/c mice were distributed into four groups bearing five mice in each group. For tumor induction, 1.5 million 4T1 cells were suspended in serum-free media and injected into the mammary pad of the animal and kept in the animal house for tumor induction. After the tumor reached an adequate size (30-150 mm^3) the mice in the allotted groups were treated with vehicle (normal saline), 15 and 30 mg/kg 2a & 30 mg/kg DIM (positive control) for every alternate day and was continued for two weeks. After the treatment, the mice were sacrificed by cervical dislocation, and the tumor was dissected out from the mammary pad, the tumor volume was measured, and images were taken. Subsequently, to examine the anti-metastatic property of the compound 2a, the chest cavity was dissected to remove the lungs, and after washing with PBS, the metastatic nodules in the lung due to 4T1 migration were checked and subsequently counted.
The anti-proliferative as well as anti-metastatic role of compound 2a was studied in 4T1 allograft breast cancer model. Briefly, 1.5×10^6 4T1 mammary breast cancer cells were injected in mouse mammary pad and kept undisturbed until the formation of tumor. Subsequently, the mice were treated with 15 and 30 mg/kg of compound 2a along with a positive control 30 mg/kg di-indoyl methane (DIM) molecule and normal saline as vehicle. The drugs were administered intraperitonially for each alternate day for 2 weeks. The animals were sacrificed and tumours were harvested from the mammary pad and tumor weight was measured (FIG. 7a & b). Moreover, the lungs were also removed and photographed to study the presence of metastatic patches. […] Furthermore, the tumors were subjected to tissue lysis and immunoblot analysis was performed to study the expression of Snail-1. Twist-1, STAT-3, Vimentin and E-cadherin.

[8] = Homo sapiens, A549, 48 h, read-out: Cytotoxicity (IC50) A549, MTT, 48 h
[9] = Homo sapiens, HT-29, 48 h, read-out: Cytotoxicity (IC50) HT-29, MTT, 48 h
[10] = Homo sapiens, PANC-1, 48 h, read-out: Cytotoxicity (IC50) Panc-1, MTT, 48 h
[11] = Homo sapiens, MIA PaCa-2, 48 h, read-out: Cytotoxicity (IC50) MIAPaCa-2, MTT, 48 h
[12] = Homo sapiens, MCF7, 48 h, read-out: Cytotoxicity (IC50) MCF-7, MTT, 48 h
[13] = Homo sapiens, PC-3, 48 h, read-out: Cytotoxicity (IC50) PC3, MTT, 48 h
[14] = Homo sapiens, HCT-116, 48 h, read-out: Cytotoxicity (IC50) HCT-116, MTT, 48 h
[15] = MTT, 48 h, read-out: Cytotoxicity (IC50) A549
[16] = MTT, 48 h, read-out: Cytotoxicity (IC50) HT-29
[17] = MTT, 48 h, read-out: Cytotoxicity (IC50) Panc-1
[18] = MTT, 48 h, read-out: Cytotoxicity (IC50) MIAPaCa-2
[19] = MTT, 48 h, read-out: Cytotoxicity (IC50) MCF-7
[20] = MTT, 48 h, read-out: Cytotoxicity (IC50) PC3
[21] = MTT, 48 h, read-out: Cytotoxicity (IC50) HCT-116
[22] = Homo sapiens, A549, 48 h, MTT, 48 h, read-out: Cytotoxicity (IC50) A549
[23] = Homo sapiens, HT-29, 48 h, MTT, 48 h, read-out: Cytotoxicity (IC50) HT-29
[24] = Homo sapiens, PANC-1, 48 h, MTT, 48 h, read-out: Cytotoxicity (IC50) Panc-1
[25] = Homo sapiens, MIA PaCa-2, 48 h, MTT, 48 h, read-out: Cytotoxicity (IC50) MIAPaCa-2
[26] = Homo sapiens, MCF7, 48 h, MTT, 48 h, read-out: Cytotoxicity (IC50) MCF-7
[27] = Homo sapiens, PC-3, 48 h, MTT, 48 h, read-out: Cytotoxicity (IC50) PC3
[28] = Homo sapiens, HCT-116, 48 h, MTT, 48 h, read-out: Cytotoxicity (IC50) HCT-116

| Structure (SMILES) | IC50 [1, 15] [µM] | IC50 [2, 16] [µM] | IC50 (Panc-1 cells [3]; [17]) [µM] | IC50 (MIAPaCa-2 cells [4]; [18]) [µM] | IC50 (MCF-7 cells; [19]) [µM] | IC50 (PC3 cells; [20]) [µM] | IC50 (HCT-116 cells; [21]) [µM] | anti-proliferative potential in colony formation assay (Panc-1 cells [5]) | IC50 [1, 22] [µM] | IC50 [2, 23] [µM] | IC50 (Panc-1 cells [3]; [24]) [µM] | IC50 (MIAPaCa-2 cells [4]; [25]) [µM] | IC50 (MCF-7 cells; [26]) [µM] | IC50 (PC3 cells; [27]) [µM] | IC50 (HCT-116 cells; [28]) [µM] | other results |
| --- | --- | --- | --- | --- | --- | --- | --- | --- | --- | --- | --- | --- | --- | --- | --- | --- |
| CCCCCc1cc(O)c2c(c1)OC(C)(C)c1ccc(C)cc1-2 (single isomer, unassigned) [Compound 4, Cannabinol, reference compound] | – | – | – | – | – | – | – | – | – | – | – | – | – | – | – | IC50 [1, 8]: 2.13 µM; IC50 [2, 9]: 20.4 µM; IC50 (Panc-1 cells [3]; [10]): 11.8 µM; IC50 (MIAPaCa-2 cells [4]; [11]): 1.63 µM; IC50 (MCF-7 cells; [12]): 50.6 µM; IC50 (PC3 cells; [13]): 28 µM; IC50 (HCT-116 cells; [14]): 47.1 µM |
| CCCc1cc(O)c2c(c1)OC(C)(C)[C@@H]1CCC(C)=C[C@@H]21 [Compound 1, Δ^9-tetrahydrocannabivarin, reference compound] | 39.4 | 46.2 | 9.28 | 23.2 | > 100 | 88.2 | 10.7 | – | – | – | – | – | – | – | – | – |
| CCCc1cc(O[C@@H]2OC(CO)[C@@H](O)C(O)C2O)c2c(c1)OC(C)(C)[C@@H]1CC=C(C)C[C@@H]21 (stereo partly drawn) [Compound 1a, Δ^8-tetrahydrocannabivarin-1-O-β-D-glucopyranoside] | – | – | – | – | – | – | – | – | – | – | – | – | – | – | – | IC50 [1, 8]: 53.1 µM; IC50 [2, 9]: > 100 µM; IC50 (Panc-1 cells [3]; [10]): 21.4 µM; IC50 (MIAPaCa-2 cells [4]; [11]): > 100 µM; IC50 (MCF-7 cells; [12]): 90.6 µM; IC50 (PC3 cells; [13]): > 100 µM; IC50 (HCT-116 cells; [14]): 32.9 µM |
| CCCc1cc2c(c(O)c1[C@@H]1OC(CO)[C@@H](O)C(O)C1O)[C@@H]1CC(C)=CC[C@H]1C(C)(C)O2 (stereo partly drawn) [Compound 1b, Δ^8-tetrahydrocannabivarin-2-C-β-D-glucopyranoside] | – | – | – | – | – | – | – | strong anti-proliferative potential | 35.7 | 40.2 | 4.12 | 9.2 | > 100 | 24 | 3.91 | fold activity compared to parent compound, pancreatic cancer cells (Panc-1 cells [3]): > 2 fold |
| CCCCCc1cc(O)c2c(c1)OC(C)(C)[C@@H]1CCC(C)=C[C@@H]21 [Compound 2, Δ^9-tetrahydrocannabinol, reference compound] | 11.7 | > 100 | 21.1 | 4.47 | 43 | > 100 | 19 | – | – | – | – | – | – | – | – | – |
| CCCCCc1cc2c(c(O)c1[C@@H]1OC(CO)[C@@H](O)C(O)C1O)[C@@H]1C=C(C)CC[C@H]1C(C)(C)O2 (stereo partly drawn) [Compound 2b, Δ^9-tetrahydrocannabinol-2-C-β-D-glucopyranoside] | – | – | – | – | – | – | – | strong anti-proliferative potential | 1.32 | 10.8 | 3.16 | 1.59 | 7.4 | 28 | 43.2 | fold anti-proliferative activity compared to parent compound, HT-29 ([2]; ratio of IC50 parent 2 vs derivative): more than 10 fold; fold activity compared to parent compound, pancreatic cancer cells (Panc-1 cells [3]): 6.6 fold; cell scattering (MIAPaCa-2 cells [6]): typical clumping of scatter cells |
| CCCCCc1cc(O)c2c(c1)OC(C)(C)[C@@H]1CC=C(C)C[C@@H]21 [Compound 3, Δ^8-tetrahydrocannabinol, reference compound] | 11.6 | > 100 | 50.9 | 2.46 | 26.7 | 28 | 27.3 | – | – | – | – | – | – | – | – | – |
| CCCCCc1cc2c(c(O)c1[C@@H]1OC(CO)[C@@H](O)C(O)C1O)-c1cc(C)ccc1C(C)(C)O2 (stereo partly drawn) [Compound 4b, Cannabinol-2-C-β-D-glucopyranoside] | – | – | – | – | – | – | – | strong anti-proliferative potential | 22.6 | 11.5 | 13.9 | 8.31 | 43.1 | 39 | 3 | cell scattering (MIAPaCa-2 cells [6]): typical clumping of scatter cells; fold anti-proliferative activity compared to parent compound, HCT-116 (HCT-116 cells; ratio of IC50 parent 4 vs derivative): > 15 fold |
| c1ccc2c(Cc3c[nH]c4ccccc34)c[nH]c2c1 [DIM, di-indoyl methane, reference compound] | – | – | – | – | – | – | – | – | – | – | – | – | – | – | – | tumor expression of Snail-1, STAT-3 and Vimentin (positive control) [7]: decreases significantly |
